Reference: patent US10407409B2, “6-(5-hydroxy-1H-pyrazol-1-yl)nicotinamide inhibitors of PHD” (Takeda Pharmaceutical Company Limited, priority 2013, dated 2019)

How the values were obtained:
[1] = test system: HIF1a protein in H9c2 rat cardiomyocytes; assay: Cell-based HIF-alpha stabilization assay (inhibition of PHD in cells); details: 24 hrs compound incubation, HIF1a protein by ELISA; for EC50: Rattus norvegicus, H9c2, 24 h, read-out: Inhibition of PHD in cells (pEC50) (converted)
Method in brief: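 HIF1a stabilization was measured by ELISA on lysates of H9c2 rat cardiomyocytes after 24 h exposure to 11 serial compound concentrations, expressed relative to the desferrioxamine maximum. Curve fits gave EC50. EC50pos denotes the concentration producing half the desferrioxamine maximal response.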

[2] = biological target: PHD2 enzyme (residues 181-417) (Homo sapiens (Human), UniProt Q9GZT9); assay: Inhibition of PHD enzyme (LC/MS peptide hydroxylation assay); format: biochemical; details: PHD2 (residues 181-417) 5 nM, 60 min pre-incubation; -log(IC50), IC50 molar
Method in brief: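 Hydroxylated peptide quantified by LC/MS after 60 min turnover of 1 uM biotinylated peptide with 2 uM 2-oxoglutarate and 1 mM ascorbate, stopped by excess tight-binding inhibitor. Beforehand, 5 nM enzyme and compound were preincubated 60 min at RT, pH 7.3 HEPES/KCl/TCEP/FeCl2/BSA buffer. Values as pIC50 (−log molar IC50).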

Sequence of PHD2 enzyme (residues 181-417) (Q9GZT9 181-417): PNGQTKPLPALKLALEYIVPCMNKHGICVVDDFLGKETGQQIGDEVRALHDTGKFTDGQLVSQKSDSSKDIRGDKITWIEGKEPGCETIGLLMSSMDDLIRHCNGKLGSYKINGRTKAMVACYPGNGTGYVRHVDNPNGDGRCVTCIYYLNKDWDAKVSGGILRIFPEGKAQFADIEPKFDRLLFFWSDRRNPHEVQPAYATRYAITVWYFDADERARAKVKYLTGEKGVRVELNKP

Row | SMILES | EC50 [1] [nM] | PHD Inhibition (pIC50) [2] | Inhibition of PHD in cells (pEC50) [1]
1 | COCCCNC(=O)c1ccc(-n2ncc(-c3ccc(CC#N)c(F)c3)c2O)nc1 [Example 219, 6-(4-(4-(cyanomethyl)-3-fluorophenyl)-5-hydroxy-1H-pyrazol-1-yl)-N-(3-methoxypropyl)nicotinamide] | 1230 | 8.2 | –
2 | N#Cc1ccc(-c2cnn(-c3ccc(C(=O)NCc4ccccc4)cn3)c2O)c(F)c1 [Example 220, N-benzyl-6-(4-(4-cyano-2-fluorophenyl)-5-hydroxy-1H-pyrazol-1-yl)nicotinamide] | 1070 | 7.13 | –
3 | N#Cc1ccc(-c2cnn(-c3ccc(C(=O)NCC4CCOCC4)cn3)c2O)c(F)c1 [Example 221, 6-(4-(4-cyano-2-fluorophenyl)-5-hydroxy-1H-pyrazol-1-yl)-N-((tetrahydro-2H-pyran-4-yl)methyl)nicotinamide] | 933 | 7.11 | –
4 | Cc1cc(C#N)ccc1-c1cnn(-c2ccc(C(=O)NCC3CCOCC3)cn2)c1O [Example 222, 6-(4-(4-cyano-2-methylphenyl)-5-hydroxy-1H-pyrazol-1-yl)-N-((tetrahydro-2H-pyran-4-yl)methyl)nicotinamide] | 100 | 7.25 | –
5 | Cc1cc(-c2cnn(-c3ccc(C(=O)NCC4CCOCC4)cn3)c2O)ccn1 [Example 223, 6-(5-hydroxy-4-(2-methylpyridin-4-yl)-1H-pyrazol-1-yl)-N-((tetrahydro-2H-pyran-4-yl)methyl)nicotinamide] | 50100 | 5.43 | –
6 | O=C(NCc1ccccc1)c1ccc(-n2ncc(-c3ccncc3)c2O)nc1 [Example 225, N-benzyl-6-(5-hydroxy-4-(pyridin-4-yl)-1H-pyrazol-1-yl)nicotinamide] | 2340 | 7.56 | –
7 | CO[C@H]1CC[C@@H](NC(=O)c2ccc(-n3ncc(-c4ccc(C#N)cc4)c3O)nc2)CC1 [Example 227, 6-(4-(4-cyanophenyl)-5-hydroxy-1H-pyrazol-1-yl)-N-((1s,4s)-4-methoxycyclohexyl)nicotinamide] | 550 | 7.38 | –
8 | CO[C@H]1CC[C@H](NC(=O)c2ccc(-n3ncc(-c4ccc(C#N)cc4)c3O)nc2)CC1 [Example 228, 6-(4-(4-cyanophenyl)-5-hydroxy-1H-pyrazol-1-yl)-N-((1r,4r)-4-methoxycyclohexyl)nicotinamide] | – | 7.48 | 6.59
9 | CO[C@H]1CC[C@H](NC(=O)c2ccc(-n3ncc(-c4ccc(C#N)cc4)c3O)nc2)CC1 [Example 229, 6-(4-(4-cyanophenyl)-5-hydroxy-1H-pyrazol-1-yl)-N-((1r,4r)-4-methoxycyclohexyl)nicotinamide] | 1050 | 7.62 | –
10 | COc1cc(C#N)ccc1-c1cnn(-c2ccc(C(=O)N[C@H]3CC[C@@H](OC)CC3)cn2)c1O [Example 230, 6-(4-(4-cyano-2-methoxyphenyl)-5-hydroxy-1H-pyrazol-1-yl)-N-((1s,4s)-4-methoxycyclohexyl)nicotinamide] | 407 | 6.83 | –
11 | COCCCNC(=O)c1ccc(-n2ncc(-c3ccc(C#N)cc3OC)c2O)nc1 [Example 231, 6-(4-(4-cyano-2-methoxyphenyl)-5-hydroxy-1H-pyrazol-1-yl)-N-(3-methoxypropyl)nicotinamide] | 372 | 6.95 | –
12 | COc1cc(C#N)ccc1-c1cnn(-c2ccc(C(=O)NC3CC3)cn2)c1O [Example 232, 6-(4-(4-cyano-2-methoxyphenyl)-5-hydroxy-1H-pyrazol-1-yl)-N-cyclopropylnicotinamide] | 339 | 7.01 | –
13 | COc1cc(-c2cnn(-c3ccc(C(=O)NC4(C5CCOCC5)CC4)cn3)c2O)ccn1 [Example 233, 6-(5-hydroxy-4-(2-methoxypyridin-4-yl)-1H-pyrazol-1-yl)-N-(1-(tetrahydro-2H-pyran-4-yl)cyclopropyl)nicotinamide] | 589 | 6.7 | –
14 | COCCCN(C)C(=O)c1ccc(-n2ncc(-c3ccc(C#N)cc3)c2O)nc1 [Example 234, 6-(4-(4-cyanophenyl)-5-hydroxy-1H-pyrazol-1-yl)-N-(3-methoxypropyl)-N-methylnicotinamide] | 2240 | 7.12 | –
15 | COCCCCNC(=O)c1ccc(-n2ncc(-c3ccc(C#N)cc3)c2O)nc1 [Example 235, 6-(4-(4-cyanophenyl)-5-hydroxy-1H-pyrazol-1-yl)-N-(4-methoxybutyl)nicotinamide] | 269 | 7.43 | –
16 | N#Cc1ccc(-c2cnn(-c3ccc(C(=O)NCCOC(F)(F)F)cn3)c2O)cc1 [Example 236, 6-(4-(4-cyanophenyl)-5-hydroxy-1H-pyrazol-1-yl)-N-(2-(trifluoromethoxy)ethyl)nicotinamide] | 589 | 7.51 | –
17 | N#Cc1ccc(-c2cnn(-c3ccc(C(=O)NC4CC5(COC5)C4)cn3)c2O)cc1 [Example 237, 6-(4-(4-cyanophenyl)-5-hydroxy-1H-pyrazol-1-yl)-N-(2-oxaspiro[3.3]heptan-6-yl)nicotinamide] | 447 | 7.54 | –
18 | COCCCCNC(=O)c1ccc(-n2ncc(-c3ccc(C#N)cc3OC)c2O)nc1 [Example 238, 6-(4-(4-cyano-2-methoxyphenyl)-5-hydroxy-1H-pyrazol-1-yl)-N-(4-methoxybutyl)nicotinamide] | 468 | 6.85 | –
19 | CN(C(=O)c1ccc(-n2ncc(-c3ccc(C#N)cc3)c2O)nc1)C1CC1 [Example 239, 6-(4-(4-cyanophenyl)-5-hydroxy-1H-pyrazol-1-yl)-N-cyclopropyl-N-methylnicotinamide] | 1700 | 7.12 | –
20 | N#Cc1ccc(-c2cnn(-c3ccc(C(=O)NCCC4CCCO4)cn3)c2O)cc1 (centres unmarked) [Example 241, 6-(4-(4-cyanophenyl)-5-hydroxy-1H-pyrazol-1-yl)-N-(2-(tetrahydrofuran-2-yl)ethyl)nicotinamide] | 437 | 7.51 | –
21 | COc1cc(-c2cnn(-c3ccc(C(=O)N(C)C4CC4)cn3)c2O)ccn1 [Example 243, N-cyclopropyl-6-(5-hydroxy-4-(2-methoxypyridin-4-yl)-1H-pyrazol-1-yl)-N-methylnicotinamide] | 4170 | 6.9 | –
22 | Cc1cc(C#N)ccc1-c1cnn(-c2ccc(C(=O)NC3CC4(COC4)C3)cn2)c1O [Example 244, 6-(4-(4-cyano-2-methylphenyl)-5-hydroxy-1H-pyrazol-1-yl)-N-(2-oxaspiro[3.3]heptan-6-yl)nicotinamide] | 240 | 8.4 | –
23 | Cc1cc(C#N)ccc1-c1cnn(-c2ccc(C(=O)NCCC3CCCO3)cn2)c1O (centres unmarked) [Example 245, 6-(4-(4-cyano-2-methylphenyl)-5-hydroxy-1H-pyrazol-1-yl)-N-(2-(tetrahydrofuran-2-yl)ethyl)nicotinamide] | 240 | 8.4 | –
24 | Cc1cc(C#N)ccc1-c1cnn(-c2ccc(C(=O)N(C)C3CC3)cn2)c1O [Example 246, 6-(4-(4-cyano-2-methylphenyl)-5-hydroxy-1H-pyrazol-1-yl)-N-cyclopropyl-N-methylnicotinamide] | 407 | 7.8 | –
25 | Cc1cc(C#N)ccc1-c1cnn(-c2ccc(C(=O)NCC3CCC(F)(F)CC3)cn2)c1O [Example 247, 6-(4-(4-cyano-2-methylphenyl)-5-hydroxy-1H-pyrazol-1-yl)-N-((4,4-difluorocyclohexyl)methyl)nicotinamide] | 813 | 8.2 | –
26 | COCC1CCN(C(=O)c2ccc(-n3ncc(-c4ccc(C#N)cc4C)c3O)nc2)CC1 [Example 248, 4-(5-hydroxy-1-(5-(4-(methoxymethyl)piperidine-1-carbonyl)pyridin-2-yl)-1H-pyrazol-4-yl)-3-methylbenzonitrile] | 251 | 8.3 | –
27 | COC1CCN(C(=O)c2ccc(-n3ncc(-c4ccc(C#N)cc4C)c3O)nc2)CC1 [Example 249, 4-(5-hydroxy-1-(5-(4-methoxypiperidine-1-carbonyl)pyridin-2-yl)-1H-pyrazol-4-yl)-3-methylbenzonitrile] | 275 | 8.3 | –
28 | Cc1cc(C#N)ccc1-c1cnn(-c2ccc(C(=O)NCCOC(F)(F)F)cn2)c1O [Example 250, 6-(4-(4-cyano-2-methylphenyl)-5-hydroxy-1H-pyrazol-1-yl)-N-(2-(trifluoromethoxy)ethyl)nicotinamide] | 457 | 8 | –
